The structures appear in SMILES notation.

Data set [1] concerns subjects with Idiopathic Hypersomnia. The data set can be described thus: Study of the efficacy of sodium oxybate (Xyrem) oral solution: ESS, PGIc, IHSS (Example 2). Format: in vivo, human. The settings on record: randomized withdrawal portion of the trial. From the text: (§1) This is a study of the efficacy and safety of sodium oxybate (Xyrem) oral solution in subjects with Idiopathic Hypersomnia. The study design is analogous to the study described in Example 1.
During the Open-label Treatment Titration and Optimization Period subjects will initiate sodium oxybate as either as a once or twice nightly dosing regimen at the discretion of the investigator. The dosing regimen of sodium oxybate may be adjusted as described in Example 1 until an optimally effective and tolerable dose regimen is established. The aim of the sodium oxybate dose titration and optimization is to maximize efficacy (reduction in IH symptoms, e.g., EDS, sleep inertia, and long sleep duration) while ensuring adequate nocturnal sleep and minimizing risk associated with safety and tolerability.
Subjects who have reached an optimized dosing regimen, and who have completed the Open label Treatment Titration and Optimization Period, will then enter the 2-week Stable Dose Period as described in Example 1.
Subjects who meet the randomization criteria at the end of the Stable Dose Period will be randomized to receive sodium oxybate at the stable dose and regimen or placebo at a volume and regimen equivalent to the sodium oxybate dose and regimen for 2 weeks. Randomization will be stratified by the subject's use of stimulant agent at baseline per the following baseline medication groups: 1) subjects not currently taking sodium oxybate but are taking a stimulant or alerting agent; or 2) subjects not currently taking sodium oxybate or a stimulant or alerting agent.
(§2) Subjects who complete the Double-blind Randomized Withdrawal Period will enter a 24-week Open-label Safety Extension Period as described in Example 1. A Safety Follow-up visit will occur 2 weeks after the Open-label Safety Extension Period (completion of study).

Data set [2] has the same test system. The data set can be described thus: Safety of sodium oxybate (Xyrem) oral solution (Example 2). The settings on record: in vivo. Set-up: species or system human.
From the text: as §1, §2

Data set [3] deals with narcolepsy. The settings on record: in vivo; cited from earlier work.

`O=C(O)CCCO` [sodium oxybate]: in data set [1], the “ESS score during randomized withdrawal” value is recorded as “clinically meaningful maintenance of efficacy”, the “IHSS during randomized withdrawal” value is reported as “clinically meaningful maintenance of efficacy” and the “change in PGIc scores during randomized withdrawal” value was “clinically meaningful maintenance of efficacy”. In addition, the overall safety profile result in data set [2] is “consistent with that previously reported for sodium oxybate (Xyrem)”.

Consider `O=C(O)CCCO` [GHB, gamma-hydroxybutyrate], for which, in data set [3], the REM latency result is reported as “decreases”; the “signs and symptoms of narcolepsy (daytime sleepiness, cataplexy, sleep paralysis, hypnagogic hallucinations)” value was “substantially reduces”; the sleep apnea result is “reduces”; the “total sleep time and REM sleep” value is “increases”.

The record behind these values is patent US12582622B2, “Sodium oxybate to treat idiopathic hypersomnia” (priority 2020, dated 2026).
